Measurements reported in patent US6262305A, “Process and intermediates for preparing 3-(substituted phenyl)-5-(thienyl or furyl)-1,2,4-triazole compounds” (priority 1999, dated 2001).

Test system: Cotton Aphid
Test: Seed Treatment Test vs. Cotton Aphid on Squash
Format: in vivo, Aphis gossypii
Experimental: Seed Treatment Test vs. Cotton Aphid on Squash
Four-inch pots were filled two-thirds full with sieved soil mix (70 sand/30 pulverized soil). Compound was applied as a suspension to the center in 4 ml volume. Squash seed placed in the applied chemical zone was covered with soil mix 1 cm deep. […] The plants were then infested with aphids. Four days later, aphid counts were made.

Row | SMILES | % Ctrl., cotton aphid on Squash - 1st True Leaf (0.8 mg/pot) | Cotton aphid counts on Squash - 1st True Leaf, Mean (0.8 mg/pot) | % Ctrl., cotton aphid on Squash - cotyledon (0.8 mg/pot) | Cotton aphid counts on Squash - cotyledon, Mean (0.8 mg/pot) | % Ctrl., cotton aphid on Squash - 1st True Leaf (3.2 mg/pot) | Cotton aphid counts on Squash - 1st True Leaf, Mean (3.2 mg/pot) | % Ctrl., cotton aphid on Squash - cotyledon (3.2 mg/pot) | Cotton aphid counts on Squash - cotyledon, Mean (3.2 mg/pot) | % Ctrl., cotton aphid on Squash - 1st True Leaf (12.8 mg/pot) | Cotton aphid counts on Squash - 1st True Leaf, Mean (12.8 mg/pot) | % Ctrl., cotton aphid on Squash - cotyledon (12.8 mg/pot) | Cotton aphid counts on Squash - cotyledon, Mean (12.8 mg/pot) | % Ctrl., cotton aphid on Squash - 1st True Leaf (0.05 mg/pot) | Cotton aphid counts on Squash - 1st True Leaf, Mean (0.05 mg/pot) | % Ctrl., cotton aphid on Squash - cotyledon (0.05 mg/pot) | Cotton aphid counts on Squash - cotyledon, Mean (0.05 mg/pot) | % Ctrl., cotton aphid on Squash - 1st True Leaf (0.2 mg/pot) | Cotton aphid counts on Squash - 1st True Leaf, Mean (0.2 mg/pot) | % Ctrl., cotton aphid on Squash - cotyledon (0.2 mg/pot) | Cotton aphid counts on Squash - cotyledon, Mean (0.2 mg/pot)
1 | Cn1nc(-c2c(F)cccc2Cl)nc1-c1sc(Cl)c(Cl)c1Cl [Compound 2, 3-(2-chloro-6-fluorophenyl)-5-(3,4,5-trichlorothien-2-yl)-1-methyl[1,2,4]triazole] | 85.8% | 12.0 | 54.4% | 48.0 | 95.9% | 3.5 | 93.1% | 7.3 | 96.1% | 3.3 | 93.3% | 7.0 | – | – | – | – | – | – | – | –
2 | Cn1nc(-c2c(Cl)cccc2Cl)nc1-c1sc(Cl)c(Cl)c1Cl [Compound 45, 3-(2,6-dichlorophenyl)-5-(3,4,5-trichlorothien-2-yl)-1-methyl[1,2,4]triazole] | 51.7% | 40.8 | 0% | 165.5 | 77.8% | 18.8 | 52.3% | 50.3 | 90.2% | 8.3 | 24.0% | 80.0 | – | – | – | – | – | – | – | –
3 | O=[N+]([O-])NC1=NCCN1Cc1ccc(Cl)nc1 [Imidacloprid, reference compound] | 100.0% | 0.0 | 100% | 0 | – | – | – | – | – | – | – | – | 58.5% | 35.0 | 97.6% | 2.5 | 88.4% | 9.8 | 100% | 0
